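Compound exposure: 48 hours, 5 concentrations, 96-well plates. The concentration for 50% growth inhibition is given as GI50.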 Calls of active or inactive are those of the source. Cut-off read from the data, not from the text of the source: active = GI50 up to about 1.1 µM and inactive = higher.
What was measured:
Experiment in all cases: NCI-60 cell line screen, 48 h
[1] = tested on: SR
[2] = tested on: SF-295
[3] = tested on: HCT-15
[4] = tested on: HCC 2998
[5] = tested on: UO-31
[6] = tested on: COLO 205
[7] = tested on: KM12
[8] = tested on: HOP-62
[9] = tested on: MDA-MB-231
[10] = tested on: MDA-N
[11] = tested on: PC-3
[12] = tested on: UACC-257
[13] = tested on: SK-MEL-5
[14] = tested on: CCRF-CEM
[15] = tested on: BT-549
[16] = tested on: HL-60
[17] = tested on: NCI-H460
[18] = tested on: TK-10
[19] = tested on: Hs-578T

Measured: GI50

[N-]=[N+]=CC(=O)OCC1SCCCS1
inactive: [1] > 100 µM | [2] > 100 µM | [4] > 100 µM | [5] > 100 µM | [6] > 100 µM | [7] > 100 µM | [8] 89.7 µM | [9] > 100 µM | [10] > 100 µM | [11] > 100 µM | [12] > 100 µM | [13] > 100 µM | [14] > 100 µM | [15] > 100 µM | [16] > 100 µM | [17] 74.6 µM | [18] > 100 µM
> 100 µM: [3]

COc1ccc(OC/C(N)=N/NC(=O)c2ccncc2)cc1
> 100 µM: [3]
inactive: [2] > 100 µM | [4] > 100 µM | [6] > 100 µM | [19] > 100 µM | [7] > 100 µM | [8] > 100 µM | [9] > 100 µM | [10] > 100 µM | [11] > 100 µM | [12] > 100 µM | [14] > 100 µM | [15] > 100 µM | [16] > 100 µM | [17] > 100 µM | [18] > 100 µM

O=C1NC(c2ccc3ccccc3c2)Nc2ccccc21 (stereo not drawn)
inactive: [1] 5.83 µM | [2] 35.3 µM | [4] 51.9 µM | [5] 64.9 µM | [6] 26.3 µM | [19] 57.4 µM | [7] 21.1 µM | [8] 41 µM | [9] > 100 µM | [11] 27.9 µM | [12] 57.9 µM | [13] 20 µM | [14] 30.6 µM | [15] 5.26 µM | [16] 15.2 µM | [17] 25.3 µM | [18] > 100 µM
14.8 µM: [3]

CN1CCN(C(=S)N(C(=O)c2ccc(Cl)cc2)c2ccccc2)CC1
> 100 µM: [3]
inactive: [1] > 100 µM | [2] > 100 µM | [4] > 100 µM | [5] > 100 µM | [6] > 100 µM | [19] 34.5 µM | [7] > 100 µM | [9] > 100 µM | [10] > 100 µM | [12] > 100 µM | [13] > 100 µM | [14] > 10 µM | [15] > 100 µM | [16] > 100 µM | [17] > 100 µM | [18] > 100 µM

CC1(C)OCC(C2CCC3(C)C4=CCC5C(C)(C)C(O)CCC5(C)C4CCC23C)CC(O)C1O (stereo not drawn)
15.8 µM: [3]
inactive: [2] 16.9 µM | [4] 15.5 µM | [5] 16.7 µM | [6] 22.5 µM | [19] 19.9 µM | [7] 14.5 µM | [9] 18.1 µM | [10] 17.9 µM | [11] 11.3 µM | [12] 12.2 µM | [13] 15.1 µM | [14] 25.8 µM | [15] 15.9 µM | [16] 12.3 µM | [17] 17 µM | [18] 13.6 µM

CN(C)c1ccc(-c2c(C#N)c(S)n(NS(=O)(=O)c3ccccc3)c(=O)c2C#N)cc1
20.5 µM: [3]
inactive: [1] 10 µM | [2] 31 µM | [4] 70.8 µM | [5] 25.5 µM | [6] 38.5 µM | [7] 16.2 µM | [9] 22.3 µM | [10] 25 µM | [11] 21.1 µM | [12] 45.8 µM | [13] 19.8 µM | [14] 5.93 µM | [15] 21.1 µM | [16] 15.7 µM | [18] 19 µM

O=C1C[C@H](c2ccccc2)O[C@@H](c2ccccc2)C1
> 100 µM: [3]
inactive: [2] > 100 µM | [4] > 100 µM | [5] > 100 µM | [6] > 100 µM | [19] > 100 µM | [7] > 100 µM | [8] > 100 µM | [9] > 100 µM | [10] > 100 µM | [11] > 100 µM | [12] > 100 µM | [13] > 100 µM | [14] > 100 µM | [15] > 100 µM | [17] > 100 µM

CCOP(=O)(OCC)C1=C(c2ccccc2)OC(N)=C(C#N)C1c1ccc(Cl)cc1 (stereo not drawn)
inactive: [1] > 100 µM | [2] > 100 µM | [4] 79.3 µM | [5] > 100 µM | [6] > 100 µM | [7] > 100 µM | [8] > 100 µM | [9] > 100 µM | [10] > 100 µM | [11] > 100 µM | [12] > 100 µM | [13] > 100 µM | [14] 30.1 µM | [15] > 100 µM | [16] > 100 µM | [17] > 100 µM | [18] > 100 µM
> 100 µM: [3]

CC1CNC(NS(=O)(=O)c2cc(C(=O)Nc3ccc(Cl)cc3)c(Cl)cc2S)=NN1 (stereo not drawn)
20.8 µM: [3]
inactive: [1] 27.2 µM | [2] 35.8 µM | [4] 19.1 µM | [5] 49.7 µM | [6] 41.7 µM | [7] 28.1 µM | [8] 41.5 µM | [9] 37.8 µM | [10] 27.3 µM | [11] 30 µM | [12] 54.2 µM | [13] 14.1 µM | [14] 34.9 µM | [15] 53.7 µM | [16] > 100 µM | [17] 38.5 µM | [18] 81.7 µM

Cc1c(N2C(=O)C(Cl)C2c2ccc(Cl)cc2)c(=O)n(-c2ccccc2)n1C (stereo not drawn)
inactive: [1] 26.4 µM | [2] > 100 µM | [5] > 100 µM | [6] > 100 µM | [7] 27.7 µM | [8] 42 µM | [9] > 100 µM | [10] 30 µM | [11] > 100 µM | [12] 14.2 µM | [13] > 100 µM | [14] 23.1 µM | [15] > 100 µM | [16] > 100 µM | [17] > 100 µM | [18] > 100 µM

O=C(NC1(C(=O)NNc2nnc(-c3ccccc3)c(-c3ccccc3)n2)C(c2ccccc2)C(c2ccccc2)=NN1c1ccccc1)c1ccccc1 (stereo not drawn)
> 100 µM: [3]
inactive: [1] > 100 µM | [2] > 100 µM | [4] 63.4 µM | [5] 41.4 µM | [6] > 100 µM | [19] > 100 µM | [7] > 100 µM | [8] > 100 µM | [9] > 100 µM | [11] > 100 µM | [12] > 100 µM | [13] > 100 µM | [15] > 100 µM | [16] 46.8 µM | [17] > 100 µM | [18] > 100 µM

Cc1cc(C)nc(NS(=O)(=O)c2ccc(Nc3nnc(/C=C/c4c(O)ccc5ccccc45)c(=O)n3N)cc2)n1
10.9 µM: [3]
inactive: [1] 18.8 µM | [2] 61.1 µM | [5] 26 µM | [19] 79.4 µM | [8] 37.4 µM | [10] 25.6 µM | [14] 12 µM | [15] 32.7 µM | [16] 22.1 µM

O=C(NC(CO)Cc1ccc(Oc2cc(CC(CO)NC(=O)OCc3ccccc3)ccc2OC(=O)OCc2ccccc2)cc1)OCc1ccccc1 (stereo not drawn)
inactive: [1] 4.19 µM | [2] 15.9 µM | [4] 16.1 µM | [5] 18.2 µM | [6] 18.2 µM | [19] 5.97 µM | [7] 17.1 µM | [8] 20.2 µM | [10] 16.6 µM | [11] 11.4 µM | [12] 15 µM | [14] 4.28 µM | [15] 11.7 µM | [16] 9.82 µM | [17] 17.8 µM | [18] 20.7 µM
24.9 µM: [3]

Nc1nc(Nc2ccc(Cl)cc2)sc1C(=O)c1cc2ccccc2oc1=O
inactive: [4] 41.9 µM | [5] > 100 µM | [6] 59.6 µM | [19] 27.2 µM | [7] 35.2 µM | [8] 12.9 µM | [9] 37.8 µM | [10] 37.3 µM | [11] 48.1 µM | [12] 69.5 µM | [13] 67.6 µM | [14] 7.38 µM | [15] 28 µM | [16] 33 µM | [17] 31 µM | [18] > 100 µM
34.5 µM: [3]

O=C1CCCC2=C1C(c1ccc3c(c1)OCO3)Nc1ccc3ccccc3c12 (stereo not drawn)
inactive: [2] > 100 µM | [4] > 100 µM | [5] > 100 µM | [6] > 100 µM | [19] 41.3 µM | [7] > 100 µM | [8] > 100 µM | [9] > 100 µM | [10] 87.1 µM | [12] > 100 µM | [13] 93.5 µM | [14] > 100 µM | [15] > 100 µM | [17] > 100 µM | [18] > 100 µM
> 100 µM: [3]

O=C(/N=N/c1ccccc1Br)NNc1ccccc1Br
inactive: [1] 32.8 µM | [4] 22.5 µM | [5] 38.9 µM | [8] > 100 µM | [9] 62.2 µM | [10] 55.8 µM | [11] 38.2 µM | [12] > 100 µM | [13] 48.4 µM | [14] 31 µM | [15] 82.8 µM | [16] 23.6 µM | [17] 70.3 µM | [18] > 100 µM
61.2 µM: [3]

Clc1ccc(-c2nc3ccc4ccccc4c3c3c2CCCC3)cc1
inactive: [2] > 100 µM | [4] > 100 µM | [5] > 100 µM | [6] > 100 µM | [19] > 100 µM | [7] > 100 µM | [8] > 100 µM | [9] > 100 µM | [10] > 100 µM | [12] > 100 µM | [13] > 100 µM | [14] 68.4 µM | [15] > 100 µM | [17] 97.3 µM | [18] > 100 µM
62.8 µM: [3]

Reference: ChEMBL document CHEMBL1201862, “PubChem BioAssay data set” (2004)
